Columns and labels:
AtPFA-DSP1^49–215 = target: T1, AtPFA-DSP1^49–215 (Arabidopsis thaliana, UniProt Q9ZVN4, C150S); experiment: X-ray crystal structure (soak); type: binding; settings: active site
T1 construct: core catalytic domain, residues 49-215; N-terminal 6xHis-MBP tag cut with TEV protease; E. coli; monomer in solution

AtPFA-DSP1 (full-length) = target: T2, AtPFA-DSP1 (full-length) (Arabidopsis thaliana, UniProt Q9ZVN4); experiment: malachite green Pi release; type: biochemical; settings: pH 7.2, 30 °C, 100 mM KCl, 0.8 mM MgCl2
T2 construct: full-length (codon-optimized cDNA, Genscript); pDest-566, N-terminal 6xHis-MBP tag cut with TEV protease; E. coli
T2 sequence (Q9ZVN4 whole entry): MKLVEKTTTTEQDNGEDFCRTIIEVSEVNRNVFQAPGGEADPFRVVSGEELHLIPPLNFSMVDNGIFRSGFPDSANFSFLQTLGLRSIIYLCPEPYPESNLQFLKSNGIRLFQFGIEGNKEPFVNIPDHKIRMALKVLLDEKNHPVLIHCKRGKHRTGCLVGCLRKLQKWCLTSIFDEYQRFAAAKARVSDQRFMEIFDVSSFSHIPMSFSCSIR

T1 sequence (Q9ZVN4 49-215 C150S): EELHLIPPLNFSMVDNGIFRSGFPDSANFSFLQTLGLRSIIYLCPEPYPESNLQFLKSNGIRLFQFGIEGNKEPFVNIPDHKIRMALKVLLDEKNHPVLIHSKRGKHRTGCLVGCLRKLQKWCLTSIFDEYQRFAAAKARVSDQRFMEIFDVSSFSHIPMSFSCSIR

O=P(O)(O)O[C@H]1[C@@H](OP(=O)(O)O)[C@H](OP(=O)(O)O)[C@@H](OP(=O)(O)OP(=O)(O)O)[C@H](OP(=O)(O)O)[C@H]1OP(=O)(O)O [5-InsP7, 5-diphosphoinositol 1,2,3,4,6-pentakisphosphate]
X-ray crystal structure (soak) (AtPFA-DSP1^49–215; substrate-trapping mutant, displaces Pi): it could now be successfully substituted by 5-InsP7

O=P(O)(O)O[C@@H]1[C@@H](OP(=O)(O)OP(=O)(O)O)[C@H](OP(=O)(O)O)[C@@H](OP(=O)(O)O)[C@@H](O)[C@H]1OP(=O)(O)O [5-PP-InsP4, 5-diphosphoinositol 1,3,4,6-tetrakisphosphate]
X-ray crystal structure (soak) (AtPFA-DSP1^49–215; beta-IN and beta-OUT poses, the latter together with Pi): instructive crystals of AtPFA-DSP1 in complex with 5-PP-InsP4

O=P(O)(O)O[C@H]1[C@@H](OP(=O)(O)O)[C@@H](OP(=O)(O)O)[C@H](OP(=O)(O)OP(=O)(O)O)[C@@H](OP(=O)(O)O)[C@@H]1OP(=O)(O)O [6-InsP7, 6-diphosphoinositol 1,2,3,4,5-pentakisphosphate]
Km (AtPFA-DSP1 (full-length)): (c), 6-InsP7

From paper PMC9038691, “A structural exposé of noncanonical molecular reactivity within the protein tyrosine phosphatase WPD loop” (Nature communications, 2022)
